According to PMC8903076 (Journal of medicinal chemistry, 2021):

Target: human GCGR (Homo sapiens, UniProt P47871)
Test: CRE-luciferase reporter assay
Type: cell-based
Settings: HEK293 cells stably expressing human GCGR

Sequence of human GCGR (P47871 26-477): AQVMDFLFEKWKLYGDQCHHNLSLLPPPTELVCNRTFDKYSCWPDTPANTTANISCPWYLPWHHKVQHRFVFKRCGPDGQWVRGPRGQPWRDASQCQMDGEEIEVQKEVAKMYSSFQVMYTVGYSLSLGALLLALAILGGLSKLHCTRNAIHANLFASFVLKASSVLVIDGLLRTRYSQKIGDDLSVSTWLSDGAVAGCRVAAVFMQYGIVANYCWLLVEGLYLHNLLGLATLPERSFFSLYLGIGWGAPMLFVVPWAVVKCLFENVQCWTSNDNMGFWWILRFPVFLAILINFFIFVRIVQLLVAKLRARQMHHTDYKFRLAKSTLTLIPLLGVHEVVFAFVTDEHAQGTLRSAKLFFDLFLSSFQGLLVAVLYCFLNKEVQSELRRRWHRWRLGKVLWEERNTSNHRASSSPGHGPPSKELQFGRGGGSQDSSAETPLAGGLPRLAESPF

- activity in activating GCGR (in words): completely lost the activity
Substance: H-HAibQGTFTSDYSKYLDSRRAQDFVK^TailWLX^1T-NH2 [compound 18]
